What follows are compounds tested on HEK293 cells (assay: Preliminary screening as mRNA vectors, EGFP mRNA transfection of HEK293 cells). Conditions: EGFP mRNA 50 ng per well, 96-well plates; percentage of GFP fluorescent cells relative to total number of cells (Hoechst).
Assay type: cell-based
Procedure: Cell line: HEK293 cells (ATCC CRL-1573™)
Medium: DMEM supplemented with 10% fetal bovine serum (Invitrogen)
Screening: cell transfection on 96-well plates
Detection (readout): percentage of the number of GFP fluorescent cells relative to the total number of cells (the total number of cells was determined using nucleus dye Hoechst). Lipofectamine2000 (Invitrogen) was used as the positive control.
Method: the experimental method was basically the same with Example 4, and the mass of EGFP mRNA (TriLink) for transfection was 50 ng per well.

First: CCCCCCCCCCCCCCSc1nc(NCCN2CCOCC2)nc(SCCCCCC)n1 [Compound D2S6S14]
Second: CCCCCCCCCCCCSc1nc(NCCN2CCOCC2)nc(SCCCCCCCC)n1 [Compound D2S8S12]
The “Absolute mRNA transfection efficiency in HEK293 cells” value (“Absolute mRNA transfection efficiency” for short) of the first is higher: 6.6% for the first, 1.1% for the second.

Compared with `CCCCCCCCCCCCCCCSc1nc(NCCN2CCOCC2)nc(SCCCCCC)n1` [Compound D2S6S15], `CCCCCCCCCCCCCCSc1nc(NCCN2CCOCC2)nc(SCCCCCCC)n1` [Compound D2S7S14] is higher in “Absolute mRNA transfection efficiency” value: 6.9% for the first, 11.0% for the second.

Going from `CCCCCCCCCCCCCCCCSc1nc(NCCN2CCOCC2)nc(SCCCCCC)n1` [Compound D2S6S16] to `CCCCCCCCCCCCCCCSc1nc(NCCN2CCOCC2)nc(SCCCCCCC)n1` [Compound D2S7S15], the “Absolute mRNA transfection efficiency” value rises from 16.0% to 17.5%.

Compared with `CCCCCCCCCCCCCCCCCCSc1nc(NCCN2CCOCC2)nc(SCCCCCC)n1` [Compound D2S6S18], `CCCCCCCCCCCCCCCCCCSc1nc(NCCN2CCOCC2)nc(SCCCCCCC)n1` [Compound D2S7S18] is lower in “Absolute mRNA transfection efficiency” value: 12.1% for the first, 5.1% for the second.

First: CCCCCCCSc1nc(NCCCCCC)nc(NCCN2CCOCC2)n1 [Compound D2S7N6]
Second: CCCCCCCNc1nc(NCCN2CCOCC2)nc(SCCCCCCC)n1 [Compound D2S7N7]
The “Absolute mRNA transfection efficiency” value of the first is higher: 1.2% for the first, 1.1% for the second.

First: CCCCCCCCNc1nc(NCCN2CCOCC2)nc(SCCCCCCC)n1 [Compound D2S7N8]
Second: CCCCCCCCSc1nc(NCCCCCCC)nc(NCCN2CCOCC2)n1 [Compound D2S8N7]
The “Absolute mRNA transfection efficiency” value of the first is higher: 1.0% for the first, 0.9% for the second.

Going from `CCCCCCCCCNc1nc(NCCN2CCOCC2)nc(SCCCCCCC)n1` [Compound D2S7N9] to `CCCCCCCCNc1nc(NCCN2CCOCC2)nc(SCCCCCCCC)n1` [Compound D2S8N8], the “Absolute mRNA transfection efficiency” value falls from 8.7% to 0.9%.

Compared with `CCCCCCCCCCCNc1nc(NCCN2CCOCC2)nc(SCCCCCCC)n1` [Compound D2S7N11], `CCCCCCCCCNc1nc(NCCN2CCOCC2)nc(SCCCCCCCCC)n1` [Compound D2S9N9] is higher in “Absolute mRNA transfection efficiency” value: 16.0% for the first, 38.5% for the second.

Going from `CCCCCCCCCCCCNc1nc(NCCN2CCOCC2)nc(SCCCCCCC)n1` [Compound D2S7N12] to `CCCCCCCCCCCNc1nc(NCCN2CCOCC2)nc(SCCCCCCCC)n1` [Compound D2S8N11], the “Absolute mRNA transfection efficiency” value rises from 3.0% to 8.1%.

Going from `CCCCCCCCCCCCCNc1nc(NCCN2CCOCC2)nc(SCCCCCCC)n1` [Compound D2S7N13] to `CCCCCCCCCCCCNc1nc(NCCN2CCOCC2)nc(SCCCCCCCC)n1` [Compound D2S8N12], the “Absolute mRNA transfection efficiency” value rises from 6.2% to 7.0%.

First: CCCCCCCCCCCCCCCNc1nc(NCCN2CCOCC2)nc(SCCCCCCC)n1 [Compound D2S7N15]
Second: CCCCCCCCCCCCCNc1nc(NCCN2CCOCC2)nc(SCCCCCCCCC)n1 [Compound D2S9N13]
The “Absolute mRNA transfection efficiency” value of the first is lower: 3.1% for the first, 12.3% for the second.

First: CCCCCCCCCCCCCCCCNc1nc(NCCN2CCOCC2)nc(SCCCCCCC)n1 [Compound D2S7N16]
Second: CCCCCCCCCCCCCCCNc1nc(NCCN2CCOCC2)nc(SCCCCCCCC)n1 [Compound D2S8N15]
The “Absolute mRNA transfection efficiency” value of the first is lower: 2.6% for the first, 5.5% for the second.

First: CCCCCCCCCCCCCCCCCCNc1nc(NCCN2CCOCC2)nc(SCCCCCCC)n1 [Compound D2S7N18]
Second: CCCCCCCCCCCCCCCCNc1nc(NCCN2CCOCC2)nc(SCCCCCCCCC)n1 [Compound D2S9N16]
The “Absolute mRNA transfection efficiency” value of the first is higher: 5.2% for the first, 1.4% for the second.

Going from `CCCCCCCSc1nc(NCCN2CCOCC2)nc(SCCCCCCC)n1` [Compound D2S7S7] to `CCCCCCCCSc1nc(NCCN2CCOCC2)nc(SCCCCCCC)n1` [Compound D2S7S8], the “Absolute mRNA transfection efficiency” value rises from 4.9% to 35.6%.

Going from `CCCCCCCCCSc1nc(NCCN2CCOCC2)nc(SCCCCCCC)n1` [Compound D2S7S9] to `CCCCCCCCSc1nc(NCCN2CCOCC2)nc(SCCCCCCCC)n1` [Compound D2S8S8], the “Absolute mRNA transfection efficiency” value rises from 37.7% to 54.5%.

Going from `CCCCCCCCCCSc1nc(NCCN2CCOCC2)nc(SCCCCCCC)n1` [Compound D2S7S10] to `CCCCCCCCCSc1nc(NCCN2CCOCC2)nc(SCCCCCCCC)n1` [Compound D2S8S9], the “Absolute mRNA transfection efficiency” value rises from 32.4% to 84.9%.

Going from `CCCCCCCCCCCSc1nc(NCCN2CCOCC2)nc(SCCCCCCC)n1` [Compound D2S7S11] to `CCCCCCCCCCSc1nc(NCCN2CCOCC2)nc(SCCCCCCCC)n1` [Compound D2S8S10], the “Absolute mRNA transfection efficiency” value rises from 24.2% to 38.8%.

Going from `CCCCCCCCCCCCSc1nc(NCCN2CCOCC2)nc(SCCCCCCC)n1` [Compound D2S7S12] to `CCCCCCCCCCCSc1nc(NCCN2CCOCC2)nc(SCCCCCCCC)n1` [Compound D2S8S11], the “Absolute mRNA transfection efficiency” value rises from 19.2% to 43.3%.

Going from `CCCCCCCCCCCCCCCCSc1nc(NCCN2CCOCC2)nc(SCCCCCCC)n1` [Compound D2S7S16] to `CCCCCCCCCCCCCCCCNc1nc(NCCN2CCOCC2)nc(SCCCCCCCC)n1` [Compound D2S8N16], the “Absolute mRNA transfection efficiency” value falls from 13.9% to 3.4%.

Compared with `CCCCCCCCSc1nc(NCCCCCC)nc(NCCN2CCOCC2)n1` [Compound D2S8N6], `CCCCCCCCCSc1nc(NCCCCCC)nc(NCCN2CCOCC2)n1` [Compound D2S9N6] is lower in “Absolute mRNA transfection efficiency” value: 0.7% for the first, 0.5% for the second.

Going from `CCCCCCCCCNc1nc(NCCN2CCOCC2)nc(SCCCCCCCC)n1` [Compound D2S8N9] to `CCCCCCCCCSc1nc(NCCCCCCCC)nc(NCCN2CCOCC2)n1` [Compound D2S9N8], the “Absolute mRNA transfection efficiency” value rises from 8.3% to 22.6%.

Compared with `CCCCCCCCCCCCCNc1nc(NCCN2CCOCC2)nc(SCCCCCCCC)n1` [Compound D2S8N13], `CCCCCCCCCCCCNc1nc(NCCN2CCOCC2)nc(SCCCCCCCCC)n1` [Compound D2S9N12] is higher in “Absolute mRNA transfection efficiency” value: 7.5% for the first, 15.2% for the second.

First: CCCCCCCCCCCCCCCCCCNc1nc(NCCN2CCOCC2)nc(SCCCCCCCC)n1 [Compound D2S8N18]
Second: CCCCCCCCCCCCCCCCCCNc1nc(NCCN2CCOCC2)nc(SCCCCCCCCC)n1 [Compound D2S9N18]
The “Absolute mRNA transfection efficiency” value of the first is higher: 3.7% for the first, 2.4% for the second.

Going from `CCCCCCCCCSc1nc(NCCCCCCC)nc(NCCN2CCOCC2)n1` [Compound D2S9N7] to `CCCCCCCCCCSc1nc(NCCCCCC)nc(NCCN2CCOCC2)n1` [Compound D2S10N6], the “Absolute mRNA transfection efficiency” value falls from 4.2% to 0.1%.

First: CCCCCCCCCCCNc1nc(NCCN2CCOCC2)nc(SCCCCCCCCC)n1 [Compound D2S9N11]
Second: CCCCCCCCCCSc1nc(NCCCCCCC)nc(NCCN2CCOCC2)n1 [Compound D2S10N7]
The “Absolute mRNA transfection efficiency” value of the first is higher: 44.8% for the first, 0.5% for the second.

`CCCCCCCCCCCCCCCNc1nc(NCCN2CCOCC2)nc(SCCCCCCCCC)n1` [Compound D2S9N15] was tested, and the “Absolute mRNA transfection efficiency” value was 5.9%.

Reference: patent publication US20230123334A1, “AMINO LIPID COMPOUND, PREPARATION METHOD THEREFOR, AND APPLICATION THEREOF” (SHENZHEN SHENXIN BIOTECHNOLOGY CO., LTD., priority 2020, published 2023)
